In brackets after ≈: the same amount, converted by molar mass.
How the values were obtained:
A549 = assay: Growth inhibition of human A549 cells at 10 uM relative to control; assay type: functional; settings: read-out: GI
A498 = assay: Growth inhibition of human A498 cells at 10 uM relative to control; assay type: functional; settings: read-out: GI
SNB-19 = assay: Growth inhibition of human SNB-19 cells at 10 uM relative to control; assay type: functional; settings: read-out: GI
HOP-62 = assay: Growth inhibition of human HOP-62 cells at 10 uM relative to control; assay type: functional; settings: read-out: GI
CCRF-CEM = assay: Growth inhibition of human CCRF-CEM cells at 10 uM relative to control; assay type: functional; settings: read-out: GI
HCC 2998 = assay: Growth inhibition of human HCC 2998 cells at 10 uM relative to control; assay type: functional; settings: read-out: GI
UO-31 = assay: Growth inhibition of human UO-31 cells at 10 uM relative to control; assay type: functional; settings: read-out: GI
SK-OV-3 = assay: Growth inhibition of human SK-OV-3 cells at 10 uM relative to control; assay type: functional; settings: read-out: GI
HL-60(TB) = assay: Growth inhibition of human HL-60(TB) cells at 10 uM relative to control; assay type: functional; settings: read-out: GI
U-251 = assay: Growth inhibition of human U-251 cells at 10 uM relative to control; assay type: functional; settings: read-out: GI
MDA-MB-468 = assay: Growth inhibition of human MDA-MB-468 cells at 10 uM relative to control; assay type: functional; settings: read-out: GI
786-0 = assay: Growth inhibition of human 786-0 cells at 10 uM relative to control; assay type: functional; settings: read-out: GI
MDA-MB-435 = assay: Growth inhibition of human MDA-MB-435 cells at 10 uM relative to control; assay type: functional; settings: read-out: GI
HT-29 = assay: Growth inhibition of human HT-29 cells at 10 uM relative to control; assay type: functional; settings: read-out: GI
OVCAR-8 = assay: Growth inhibition of human OVCAR-8 cells at 10 uM relative to control; assay type: functional; settings: read-out: GI
NCI-H522 = assay: Growth inhibition of human NCI-H522 cells at 10 uM relative to control; assay type: functional; settings: read-out: GI
NCI/ADR-RES = assay: Growth inhibition of human NCI/ADR-RES cells at 10 uM relative to control; assay type: functional; settings: read-out: GI
MCF7 = assay: Growth inhibition of human MCF7 cells at 10 uM relative to control; assay type: functional; settings: read-out: GI
KM12 = assay: Growth inhibition of human KM12 cells at 10 uM relative to control; assay type: functional; settings: read-out: GI
MOLT-4 = assay: Growth inhibition of human MOLT-4 cells at 10 uM relative to control; assay type: functional; settings: read-out: GI
DU-145 = assay: Growth inhibition of human DU-145 cells at 10 uM relative to control; assay type: functional; settings: read-out: GI
LOX IMVI = assay: Growth inhibition of human LOX IMVI cells at 10 uM relative to control; assay type: functional; settings: read-out: GI
RPMI-8226 = assay: Growth inhibition of human RPMI-8226 cells at 10 uM relative to control; assay type: functional; settings: read-out: GI
SNB-75 = assay: Growth inhibition of human SNB-75 cells at 10 uM relative to control; assay type: functional; settings: read-out: GI
OVCAR-5 = assay: Growth inhibition of human OVCAR-5 cells at 10 uM relative to control; assay type: functional; settings: read-out: GI
Hs-578T = assay: Growth inhibition of human Hs-578T cells at 10 uM relative to control; assay type: functional; settings: read-out: GI
SK-MEL-2 = assay: Growth inhibition of human SK-MEL-2 cells at 10 uM relative to control; assay type: functional; settings: read-out: GI
HCT-15 = assay: Growth inhibition of human HCT-15 cells at 10 uM relative to control; assay type: functional; settings: read-out: GI
NCI-H226 = assay: Growth inhibition of human NCI-H226 cells at 10 uM relative to control; assay type: functional; settings: read-out: GI
NCI-H23 = assay: Growth inhibition of human NCI-H23 cells at 10 uM relative to control; assay type: functional; settings: read-out: GI
HOP-92 = assay: Growth inhibition of human HOP-92 cells at 10 uM relative to control; assay type: functional; settings: read-out: GI
SF-295 = assay: Growth inhibition of human SF-295 cells at 10 uM relative to control; assay type: functional; settings: read-out: GI
RXF 393 = assay: Growth inhibition of human RXF 393 cells at 10 uM relative to control; assay type: functional; settings: read-out: GI
Malme-3M = assay: Growth inhibition of human Malme-3M cells at 10 uM relative to control; assay type: functional; settings: read-out: GI
OVCAR-4 = assay: Growth inhibition of human OVCAR-4 cells at 10 uM relative to control; assay type: functional; settings: read-out: GI
SF-539 = assay: Growth inhibition of human SF-539 cells at 10 uM relative to control; assay type: functional; settings: read-out: GI
SW-620 = assay: Growth inhibition of human SW-620 cells at 10 uM relative to control; assay type: functional; settings: read-out: GI
TK-10 = assay: Growth inhibition of human TK-10 cells at 10 uM relative to control; assay type: functional; settings: read-out: GI
MDA-MB-231 = assay: Growth inhibition of human MDA-MB-231 cells at 10 uM relative to control; assay type: functional; settings: read-out: GI
COLO 205 = assay: Growth inhibition of human COLO 205 cells at 10 uM relative to control; assay type: functional; settings: read-out: GI
PC-3 = assay: Growth inhibition of human PC-3 cells at 10 uM relative to control; assay type: functional; settings: read-out: GI
HCT-116 = assay: Growth inhibition of human HCT-116 cells at 10 uM relative to control; assay type: functional; settings: read-out: GI
SK-MEL-28 = assay: Growth inhibition of human SK-MEL-28 cells at 10 uM relative to control; assay type: functional; settings: read-out: GI
NCI-H460 = assay: Growth inhibition of human NCI-H460 cells at 10 uM relative to control; assay type: functional; settings: read-out: GI
DNA = assay: Displacement of methyl green from DNA (unknown origin) assessed as DNA intercalation after 24 hrs by colorimetric assay; assay type: nucleic-acid assay
K562 = assay: Growth inhibition of human K562 cells at 10 uM relative to control; assay type: functional; settings: read-out: GI
SF-268 = assay: Growth inhibition of human SF-268 cells at 10 uM relative to control; assay type: functional; settings: read-out: GI
UACC-62 = assay: Growth inhibition of human UACC-62 cells at 10 uM relative to control; assay type: functional; settings: read-out: GI
SK-MEL-5 = assay: Growth inhibition of human SK-MEL-5 cells at 10 uM relative to control; assay type: functional; settings: read-out: GI
BT-549 = assay: Growth inhibition of human BT-549 cells at 10 uM relative to control; assay type: functional; settings: read-out: GI
CAKI-1 = assay: Growth inhibition of human CAKI-1 cells at 10 uM relative to control; assay type: functional; settings: read-out: GI
SN12C = assay: Growth inhibition of human SN12C cells at 10 uM relative to control; assay type: functional; settings: read-out: GI
M14 = assay: Growth inhibition of human M14 cells at 10 uM relative to control; assay type: functional; settings: read-out: GI
IGROV-1 = assay: Growth inhibition of human IGROV-1 cells at 10 uM relative to control; assay type: functional; settings: read-out: GI
NCI-H322M = assay: Growth inhibition of human NCI-H322M cells at 10 uM relative to control; assay type: functional; settings: read-out: GI
ACHN = assay: Growth inhibition of human ACHN cells at 10 uM relative to control; assay type: functional; settings: read-out: GI
SR = assay: Growth inhibition of human SR cells at 10 uM relative to control; assay type: functional; settings: read-out: GI
T47D = assay: Growth inhibition of human T47D cells at 10 uM relative to control; assay type: functional; settings: read-out: GI

Question: What does the source list for COc1ccc(/C=C/C2=CC(c3ccc(OC)c(OC)c3)N3C(C)=CSC3=N2)cc1OC (stereo not drawn)?
Answer: inhibition of growth at 10 µM (A549): < 10%; inhibition of growth at 10 µM (A498): 17.6%; inhibition of growth at 10 µM (SNB-19): < 10%; inhibition of growth at 10 µM (HOP-62): < 10%; inhibition of growth at 10 µM (CCRF-CEM): < 10%; inhibition of growth at 10 µM (HCC 2998): < 10%; inhibition of growth at 10 µM (UO-31): 11.7%; inhibition of growth at 10 µM (SK-OV-3): < 10%; inhibition of growth at 10 µM (HL-60(TB)): < 10%; inhibition of growth at 10 µM (U-251): < 10%; inhibition of growth at 10 µM (MDA-MB-468): < 10%; inhibition of growth at 10 µM (786-0): < 10%; inhibition of growth at 10 µM (MDA-MB-435): < 10%; inhibition of growth at 10 µM (HT-29): < 10%; inhibition of growth at 10 µM (OVCAR-8): < 10%; inhibition of growth at 10 µM (NCI-H522): < 10%; inhibition of growth at 10 µM (NCI/ADR-RES): < 10%; inhibition of growth at 10 µM (MCF7): < 10%; inhibition of growth at 10 µM (KM12): < 10%; inhibition of growth at 10 µM (MOLT-4): < 10%; inhibition of growth at 10 µM (DU-145): < 10%; inhibition of growth at 10 µM (LOX IMVI): < 10%; inhibition of growth at 10 µM (RPMI-8226): < 10%; inhibition of growth at 10 µM (SNB-75): < 10%; inhibition of growth at 10 µM (OVCAR-5): < 10%; inhibition of growth at 10 µM (Hs-578T): < 10%; inhibition of growth at 10 µM (SK-MEL-2): < 10%; inhibition of growth at 10 µM (HCT-15): < 10%; inhibition of growth at 10 µM (NCI-H226): < 10%; inhibition of growth at 10 µM (NCI-H23): < 10%; inhibition of growth at 10 µM (HOP-92): 18%; inhibition of growth at 10 µM (SF-295): < 10%; inhibition of growth at 10 µM (RXF 393): < 10%; inhibition of growth at 10 µM (Malme-3M): < 10%; inhibition of growth at 10 µM (OVCAR-4): < 10%; inhibition of growth at 10 µM (SF-539): < 10%; inhibition of growth at 10 µM (SW-620): < 10%; inhibition of growth at 10 µM (TK-10): < 10%; inhibition of growth at 10 µM (MDA-MB-231): < 10%; inhibition of growth at 10 µM (COLO 205): < 10%; inhibition of growth at 10 µM (PC-3): < 10%; inhibition of growth at 10 µM (HCT-116): < 10%; inhibition of growth at 10 µM (SK-MEL-28): < 10%; inhibition of growth at 10 µM (NCI-H460): < 10%; IC50 (DNA): 72.54 µg/mL (≈ 161 µM); inhibition of growth at 10 µM (K562): < 10%; inhibition of growth at 10 µM (SF-268): < 10%; inhibition of growth at 10 µM (UACC-62): < 10%; inhibition of growth at 10 µM (SK-MEL-5): < 10%; inhibition of growth at 10 µM (BT-549): < 10%; inhibition of growth at 10 µM (CAKI-1): < 10%; inhibition of growth at 10 µM (SN12C): < 10%; inhibition of growth at 10 µM (M14): < 10%; inhibition of growth at 10 µM (IGROV-1): < 10%; inhibition of growth at 10 µM (NCI-H322M): < 10%; inhibition of growth at 10 µM (ACHN): < 10%; inhibition of growth at 10 µM (SR): < 10%; inhibition of growth at 10 µM (T47D): < 10%

From ChEMBL document CHEMBL4665869, “New thiazolopyrimidine as anticancer agents: Synthesis, biological evaluation, DNA binding, molecular modeling and ADMET study” (Bioorg Med Chem Lett, 2020)
